“Also recorded” adds a separate entry of the source. Where two headings read alike, the source gives them in different places.
Tests used:
[1] = tested on: children undergoing PE and PSF surgeries; experiment: Postoperative opioid use, pain scores, FDI and hospital stay with multidose methadone-based multimodal analgesia (Example 1); format: in vivo, human; settings: for postoperative opioid use (morphine equivalents): current Example
[2] = tested on: adolescents undergoing PSF that received methadone; experiment: Preliminary pharmacogenetic associations in 50 PSF adolescents that received methadone; format: in vivo, human
From the text: OPRM1 rs1799971 is also associated with susceptibility to dependence.

[3] = tested on: children undergoing PE and PSF surgeries; experiment: CYP2B6 genetic associations with methadone-induced PONV and pain scores (Example 3); format: in vivo, human
From the text: This Example is a prospective, genotype-blinded, clinical observational study of children undergoing Nuss bar repair for pectus excavatum (PE) and posterior spinal fusion (PSF) repair for idiopathic scoliosis that received multidose methadone-based multimodal analgesia, performed in a tertiary care pediatric hospital.
Multimodal analgesia protocols as illustrated in TABLE 1 set forth above in Example 1 were followed for all the participants undergoing the surgeries.
The primary clinical outcome measured was PONV. The secondary outcome measured was maximum postoperative pain scores. Episodes of PONV were recorded as a binary outcome from nursing reports on electronic health records. Analgesic efficacy was described in terms of patient self-reported pain scores. Pain scores were collected every 2 to 4 h using a self-reported numeric rating scale ranging from 0 to 10.
Analyses were performed using the dominant, additive or recessive models to explore for possible associations. Associations were tested using ‘A’ as the referent allele and ‘a’ as the alternative allele under dominant model (i.e. AA vs. Aa/aa), additive model (i.e. AA vs. Aa vs. aa) and recessive model (i.e. AA/Aa vs. aa). Linear regression was used to investigate SNP associations for pain score. Poisson regression was used to investigate SNP associations for PONV. Unadjusted as well as covariate-adjusted analyses, adjusted for weight, race, age, surgery type and sex were performed. For primary outcome, PONV, the SNP's rate ratios (i.e. exponential of the slope parameter in the Poisson regression), p-values and 95% Cis were computed. For postoperative pain score, the SNPs' effect (i.e. the slope parameter in the linear regression model), p-values, and 95% confidence intervals (CIs) were computed.
Because eight SNPs were used for the final analysis, a Bonferroni correction was used for multiple comparisons for the primary outcome measure, which yielded a significance threshold of p=0.00625 [p=0.05/8 SNPs)].

[4] = tested on: adolescents undergoing PSF; settings: cited from earlier work; for postoperative opioid use (morphine equivalents): another adolescent PSF study, single larger intraoperative methadone dose; for mean morphine equivalent dose 0-72 hour: historical cohort
AAG = settings: plasma; cited from earlier work
[5] = cited from earlier work
[6] = tested on: children undergoing PE and PSF surgeries; experiment: Regression of clinical outcomes on pharmacokinetic measures (Example 1, Table 3); settings: logistic regression; CI in next column
[7] = tested on: children undergoing PE and PSF surgeries; experiment: Safety of multidose perioperative methadone: respiratory depression, PONV, QTc (Example 1)
[8] = Plasma R-, S- and total methadone concentrations after multiple small perioperative methadone doses (Example 1); settings: human, in vivo, 0.1 mg/kg/dose
[9] = equations 7, 10; decrease
From the text: Oral doses were either given as a tablet or a suspension depending on the patient's convenience. […] The time schedule was later modified to collect more samples through the 1st and 3rd inter-dose interval without samples through the 2n d interdose interval. This was done to aid in the optimal spread of the collected concentration time-points and improvement of estimation of absorption parameters of the oral doses. Some of the samples collected in a parallel study were also used whenever available with the consent of the patient to aid with the better estimation of the terminal elimination phase.
The first-order conditional estimation method with η-ε interaction (FOCE-I) was used throughout the model building process. The dose of the drug, concentrations of the drug and the metabolite were converted to their molar counterparts to aid in the accurate estimation of the pharmacokinetic parameters. Perl-Speaks-NONMEM v.4.9.0, R v.4.0.4 (R Foundation for Statistical Computing) with the Xpose4 package v.4.6.0, RStudio v1.4 and Pirana v.2.9.9 were used for data exploration, visualization, diagnostics and automation. Measured plasma concentrations that were below the LLOQ were dealt with using the M1 method (discarding concentrations below the LLOQ and estimate the PK parameters using the remaining concentrations). […] Model assessment was based on successful minimization, OFV, the proper running of the covariance step, relative standard error of the parameter estimates, the goodness of fit plots and eta-shrinkage. Model validation was done using visual predictive checks and a bootstrapping procedure. The predictive performance of the models was evaluated using prediction corrected visual predictive checks (n=1000). The robustness of the final parameter estimates and the stability of the final model were validated using bootstrapping by generating 1000 resampled datasets with replacement.
The model building process was done in a step-wise process. Multiple disposition models (one-, two- and three-compartment) were evaluated. Absorption models with various absorption parameters (first order absorption with and without lag, transit compartment models) were tried. Bioavailability was estimated as each patient had both intravenous and oral dose data. […] Vf was fixed to 1 in the model due to unidentifiability of the metabolite parameters as there were no urine data available for either the drug or the metabolite. CLF is the fraction of CL, the total clearance of the drug that contributes to CL2, the clearance towards the formation of the metabolite. […]
The demographic covariates checked were biological gender, body weight, fat free mass, BMI and race. […] AAG was measured at every time-point the concentrations were measured and were therefore used as a time-varying covariate in the model. […]

[10] = postoperative day 1, median (IQR)
[11] = postoperative day 2, median (IQR)
[12] = postoperative day 3, median (IQR)
[13] = postoperative day 4, median (IQR)
[14] = postoperative day 5, median (IQR)

CCC(=O)C(CC(C)N(C)C)(c1ccccc1)c1ccccc1 (racemic) [methadone]
mean morphine equivalent, multi-dose methadone regimen ([1]; 0-72 hour, standard deviation 28.4): 113.25
median FDI score ([1]; 3 months postoperatively, median (IQR)): 4 (0-9.5)
median FDI score ([1]; 6 months postoperatively, median (IQR)): 2 (0-4)
median FDI score ([1]; 12 months postoperatively, median (IQR)): 0 (0-3.5)
Average pain scores during the entire in-hospital stay ([1]; PE): 3.60
median hospital stay ([1]; PE): 4 days
Average pain scores during the entire in-hospital stay ([1]; PSF): 3.95
median hospital stay ([1]; PSF): 3 days
median total opioid usage ([1]; following PE): 2.6 mg/kg
median total opioid usage ([1]; following PSF): 2.1 mg/kg
Average morphine equivalent dose ([1]; median (IQR)): 0.66 (0.59-0.74) mg/kg/day
median usage of the common rescue opioids ([1]; not different between the surgeries): 0.03 mg/kg morphine equivalents
Average pain score ([1]; numeric rating scale 0 to 10, median (IQR)): 3.53 (2.73-4.80)
postoperative opioid use (morphine equivalents) ([1]; postoperative day 1): 0.6 mg/kg
Pain scores [1, 10]: 3.5 (2.3-5.1)
morphine equivalent units, including methadone doses [1, 10]: 0.61 (0.56-0.65) MEU/kg
postoperative opioid use (morphine equivalents) ([1]; postoperative day 2): 0.88 mg/kg
Pain scores [1, 11]: 3.4 (2.9-4.6)
morphine equivalent units, including methadone doses [1, 11]: 0.88 (0.68-1.06) MEU/kg
postoperative opioid use (morphine equivalents) ([1]; postoperative day 3): 0.64 mg/kg
Pain scores [1, 12]: 3.7 (2.0-5.2)
morphine equivalent units, including methadone doses [1, 12]: 0.58 (0.37-0.85) MEU/kg
Pain scores [1, 13]: 3.8 (2.7-5.0)
morphine equivalent units, including methadone doses [1, 13]: 0.42 (0.35-0.58) MEU/kg
Pain scores [1, 14]: 3.7 (3.3-4.4)
morphine equivalent units, including methadone doses [1, 14]: 0.59 (0.21-0.67) MEU/kg
mean morphine equivalent dose in the first 72 postoperative hours ([1]; printed as mean (95% CI: 98.5-131.8)): 120.2 mg
opioid use reduction ([1]; vs historical PCA opioids without intraoperative methadone, first 72 postoperative hours): 58.67%
opioid use reduction ([1]; vs historical single intraoperative methadone of 0.1 mg/kg): 59.12%
opioid use reduction ([1]; vs historical single intraoperative methadone of 0.2 mg/kg): 47.81%
opioid use reduction ([1]; vs historical single intraoperative methadone of 0.3 mg/kg): 48.76%
average in-hospital opioid use ([2]; OPRM1 rs1799971 AA genotype): 33.2 ± 8.0 mg
average in-hospital opioid use ([2]; OPRM1 rs1799971 GG and GA genotype): 40.1 ± 6.1 mg
hospital stay ([2]; adolescents other than FAAH rs3766246 wild type): 2.6 ± 0.8 days
lower in-hospital opioid use, homologous/heterologous variants of FAAH rs3766246 and rs4141964 ([2]; compared with the wild type): 15-20%
higher average in-hospital opioid use, OPRM1 rs1799971 GG and GA vs AA genotype ([2]; in vivo): 20%
longer hospital stay, wild type of FAAH rs3766246 ([2]; than others): 1 days
Morphine equivalent - Fusion ([3]; mean): 0.6 mg/kg
Morphine equivalent - Pectus ([3]; mean): 0.7 mg/kg
Length of hospital stay ([3]; mean, 53 children): 2.7 days
Beta, patient reported pain scores ([3]; rs4803419, Recessive model TT vs CC/TT (so in the source), Covariate adjusted analysis): −1.70
Beta, patient reported pain scores ([3]; rs4803419, Recessive model TT vs CC/TT (so in the source), Unadjusted analysis): −1.78
Beta, patient reported pain scores ([3]; rs10500282, Additive Model CC vs TT, Covariate adjusted analysis): −2.61
Beta, patient reported pain scores ([3]; rs10500282, Additive Model CC vs TT, Unadjusted analysis): −2.00
Beta, patient reported pain scores ([3]; rs10500282, Additive Model TC vs TT, Covariate adjusted analysis): 1.31
Beta, patient reported pain scores ([3]; rs10500282, Additive Model TC vs TT, Unadjusted analysis): 1.33
Beta, patient reported pain scores ([3]; rs10500282, Dominant model TC/CC vs TT, Covariate adjusted analysis): 1.18
Beta, patient reported pain scores ([3]; rs10500282, Dominant model TC/CC vs TT, Unadjusted analysis): 1.16
Beta, patient reported pain scores ([3]; rs11882424, Additive Model TC vs TT, Covariate adjusted analysis): 2.12
Beta, patient reported pain scores ([3]; rs11882424, Additive Model TC vs TT, Unadjusted analysis): 2.19
Beta, patient reported pain scores ([3]; rs11882424, Dominant model TC/CC vs TT, Covariate adjusted analysis): 2.12
Beta, patient reported pain scores ([3]; rs11882424, Dominant model TC/CC vs TT, Unadjusted analysis): 2.19
incidence of postoperative respiratory depression ([4]; 7 out of 31 receiving intraoperative methadone, first 48 hours): 22.6%
postoperative opioid use (morphine equivalents) ([4]; postoperative day 1): 0.54 mg/kg
postoperative opioid use (morphine equivalents) ([4]; postoperative day 2): 1.08 mg/kg
postoperative opioid use (morphine equivalents) ([4]; postoperative day 3): 1.29 mg/kg
mean morphine equivalent dose 0-72 hour ([4]; single intraoperative methadone 0.3 mg/kg): 221
mean morphine equivalent dose 0-72 hour ([4]; single intraoperative methadone of 0.1 mg/kg): 277 mg
PONV incidence in other studies ([4]; in vivo): 33-38%
incidence of respiratory depression ([4]; large observational study, intraoperative methadone of 0.14 mg/kg and postoperative opioids): 37%
bound to AAG (AAG): 80-90%
contribution of CYP3A4 to the metabolism of the drug ([5]; in vivo): more than 50%
parent drug eliminated in urine ([5]; in vivo): 10-20%
inter-individual variation in blood levels after methadone administration ([5]; up to): ≤ 17 fold
OR, Nausea/Vomiting vs Methadone dose per kg per day [6]: 3.1e3
episodes of PONV ([7]; 38 children): 18
respiratory depression observed ([7]; 38 children receiving multiple dose of methadone): 0%
respiratory depression (in words) ([7]; 38 children, 95% Wilson binomial confidence [0, 0.09]): No child in this Example had respiratory depression; also recorded: no patient had respiratory depression
Postoperative QTc ([7]; median (IQR), Bazett's formula): 431 (414-440) ms
postoperative QTc longer than preoperative QTc interval ([7]; median, IQR -10, 28): 9 ms
patients with PONV ([7]; of 38 children): 12
Cmax [8]: 24.7 ng/mL

CCC(=O)C(C[C@@H](C)N(C)C)(c1ccccc1)c1ccccc1 [R-methadone]
fractional change of V2 per active allele rs17650 (ORM1) [9]: 0.443
proportional change of V2 per unit AAG conc from 94.76 [9]: 0.00291

CCC(=O)C(C[C@H](C)N(C)C)(c1ccccc1)c1ccccc1 [S-methadone]
fractional change of V2 per active allele rs17650 (ORM1) [9]: 0.526
proportional change of V2 per unit AAG conc from 94.76 [9]: 0.00192
